Earlier results, collected in patent US20140073694A1, “CYSTAMINE ANALOGUES FOR THE TREATMENT OF PARKINSON'S DISEASE” (UNIVERSITE LAVAL, priority 2011, published 2014).

System: Huntington's disease patients
Details: cited from earlier work

In the case of `NCCS.O=C(O)C(O)C(O)C(=O)O` (centres unmarked) [cysteamine bitartrate], the clinical efficacy is given as “clinical efficacy was not demonstrated” and the tolerable dose (dose escalation 10 to 70 mg/kg per day) is given as 20 mg/kg per day.
